We go through 3 compounds from article PMC5116268 (Journal of pharmacological and toxicological methods, 2016).

SMILES strings stand for the structures.

The subject of this experiment is GABAA receptor (native mixed population in iCell Neurons). Kind of experiment: automated patch clamp. It is filed as cell-based, Homo sapiens. For orientation: The patch-clamp technique gives a direct electrical read-out from membranes.
Broadly, the EC50 is the concentration needed to bring the measured effect to its halfway point. A lower EC50 goes with a more potent agent. In turn, `COc1ccc(-n2nc3c4ccc(OC)cc4[nH]cc-3c2=O)cc1` [CW-04-020] had an EC50 of 230 ± 70 nM. In turn, `C#Cc1ccc2c(c1)C(c1ccccn1)=NCc1c(C(=O)OCC)ncn1-2` [HZ166] showed an EC50 of 1560 ± 830 nM. As to `CN1C(=O)CN=C(c2ccccc2)c2cc(Cl)ccc21` [diazepam], the EC50 was determined as 420 ± 120 nM.
